# Experimental data: patent US20210244704A1, “Cabazitaxel in mCRPC Patients Previously Treated with Docetaxel and Who Failed a Prior androgen signaling targeted inhibitor Agent” (SANOFI MATURE IP, priority 2019, published 2021)
# Assays:
# mCRPC patients [1] = settings: at 3 months; cited from earlier work
# mCRPC patients [2] = settings: 3 months; cited from earlier work
# [3] = tested on: mCRPC patients, safety population; test: Same clinical study: safety (adverse events, laboratory abnormalities, dose reductions); format: in vivo, human; settings: human, in vivo
# Experimental: For patients in Arm A, cabazitaxel 25 mg/m^2 was administered intravenously over 1 hour every 3 weeks along with oral prednisone 10 mg given daily. Primary prophylactic granulocyte-colony stimulating factor (G-CSF) was required at each cycle for all patients in the cabazitaxel arm
# For patients in Arm B, abiraterone acetate was administered orally at 1000 mg once daily along with oral prednisone 5 mg given twice daily or enzalutamide was administered orally at 160 mg once daily continuously. Abiraterone acetate was administered to patients who had received enzalutamide prior to study entry. Enzalutamide was administered to patients who received prior abiraterone acetate.
# Cabazitaxel 25 mg/m^2, was administered intravenously over 1 hour every 3 weeks with oral prednisone 10 mg daily. Premedication included an antihistamine, glucocorticoid (dexamethasone 8 mg or equivalent), and histamine 2 receptor antagonist. Antiemetic prophylaxis was administered at physician's discretion. Primary prophylactic granulocyte-colony stimulating factor was required during each cycle of cabazitaxel. Patients received either abiraterone acetate (1000 mg orally once daily and oral prednisone 5 mg twice daily) or enzalutamide (160 mg orally once daily) continuously. A treatment cycle was 3 weeks in both arms. Abiraterone acetate was given to patients who previously received enzalutamide before study entry. Enzalutamide was given to patients who previously received abiraterone acetate.
# Up to a maximum of 2 dose reductions was allowed per patient when necessary due to toxicity and according to the table below:
# Efficacy analysis used all randomized patients. Stratified log-rank tests were used to analyze time-to-event data. The primary analysis compared radiographic progression-free survival between the two treatment groups using a stratified log-rank test. Survival curves were generated using Kaplan-Meier estimates. Hazard ratios and associated 95% confidence intervals [CI] were estimated using a stratified Cox proportional hazards model. Stratified Cochran-Mantel-Haenszel chi-square tests were used to analyze categorical data. Descriptive statistics were used to summarize patient characteristics. The safety population (randomized patients who received at least one dose of study treatment) was used for all safety analyses.
# [4] = tested on: patients with mCRPC who progressed during or after docetaxel; settings: every 3 weeks with prednisone 10 mg daily; cabazitaxel 25 mg/m^2, mitoxantrone 12 mg/m^2; cited from earlier work
smiles,measurement,setting,value
"CNC(=O)c1ccc(N2C(=S)N(c3ccc(C#N)c(C(F)(F)F)c3)C(=O)C2(C)C)cc1F [enzalutamide, 4-{3-[4-cyano-3-(trifluoromethyl)phenyl]-5,5-dimethyl-4-oxo-2-sulfanylideneimidazolidin-1-yl}-2-fluoro-N-methylbenzamide]",Patients with imaging-based progression,mCRPC patients [1],about 25%
"CC(=O)O[C@H]1CC[C@@]2(C)C(=CC[C@@H]3[C@@H]2CC[C@]2(C)C(c4cccnc4)=CC[C@@H]32)C1 [abiraterone acetate, (3β)-17-(3-pyridinyl) androsta-5,16-dien-3-yl acetate]","Patients with primary resistance, imaging-based progression at the first visit",mCRPC patients [2],about 30%
same,At least one dose reduction required,[3],17 patients
O=C1c2c(O)ccc(O)c2C(=O)c2c(NCCNCCO)ccc(NCCNCCO)c21 [mitoxantrone],"Median overall survival, TROPIC trial",[4],12.7 months
